Laboratory results: US12630632B2, “Bispecific HER2 and CD3 binding molecules” (Memorial Sloan Kettering Cancer Center, priority 2017, dated 2026)
Entries after “also recorded” stand apart in the source; their conditions may differ.

Assays:
[1] = test system: HeLa; test: T-cell cytotoxicity, 51Cr release assay; type: cell-based, human; conditions: HeLa pre-treated with lapatinib
Procedure: (§1) The ^51Cr release assay was performed with effector T cells cultured in vitro in the presence of anti-CD3 and anti-CD28 for about 14 days. All target tumor cells were harvested with 2 mM EDTA in PBS, labeled with ^51Cr (Amersham, Arlington Height, IL) at 100 μCi/106 cells at 37° C. for 1 h. 5000 target cells/well were mixed with 50,000 effector cells (E:T=10:1) and BsAb antibodies in 96-well polystyrene round-bottom plates (BD Biosciences) to a final volume of 250 μl/well. The plates were incubated at 37° C. for 4 h. The released ^51Cr in supernatant was counted in a γ-counter (Packed Instrument, Downers Grove, IL). Percentage of specific release was calculated using the formula: (experimental cpm−background cpm)/(total cpm−background cpm)×100%, where cpm represented counts per minute of ^51Cr released. Total release was assessed by lysis with 10% SDS (Sigma, St Louis, Mo), and background release was measured in the absence of effector cells. EC50 was calculated using SigmaPlot software.
Cell cytotoxicity was assayed by ^51Cr release as previously described (Xu et al., Cancer immunology research 2015; 3:266-77), and EC50 was calculated using SigmaPlot software. Effector PBMC cells were purified from buffy coats purchased from the New York Blood Center. […]

[2] = test system: SCCHN cell line PCI-30; test: Cell proliferation assay (WST-8); type: cell-based, human; conditions: 10 nM kinase inhibitors, 10 μg/mL antibodies
Procedure: (§2) Cell proliferation was determined using an ELISA plate reader and the WST-8 kit (Dojindo technologies) following the manufacturer's instructions and using the formula: % survival rate=(Sample-Background)/(Negative control-Background). Lapatinib (MSKCC pharmacy) was ground using a mortar and pestle and suspended in DMSO as previously described. To determine statistical significance, the results were analyzed using one-way ANOVA using Prism 6.0.
(§3) For cell proliferation assays, 5,000 tumor cells were plated using RPMI-1640 supplemented with 10% FBS in a 96 well plate for 36 hours before being treated with lapatinib or the antibodies at the specified concentrations. Cell proliferation was determined using an ELISA plate reader and the WST-8 kit (Dojindo technologies) following the manufacturer's instructions and using the formula: % survival rate=(Sample-Background)/(Negative control-Background). Lapatinib (Memorial Sloan Kettering Cancer Center pharmacy) was ground using a mortar and pestle and suspended in DMSO as previously described (Chen et al., 2012, Molecular cancer therapeutics 11:660-669). To determine statistical significance, the results were analyzed using one-way ANOVA using Prism 6.0.
(§4) For tumor cell proliferation, 5,000 tumor cells were plated using RPMI-1640 supplemented with 10%, fetal bovine serum (“FBS”) in a 96 well plate for 36 hours before being treated with—kinase inhibitors or the antibodies at the specified concentration. Cell proliferation was determined using the cell counting WST-8 kit (Dojindo technologies) following the manufacturer's instructions and using the formula: % survival rate=(Sample-Background)(Negative control-Background). Lapatinib was ground using a mortar and pestle and suspended in DMSO as previously described (Chen et al., Molecular cancer therapeutics 2012; 11:660-9). To determine statistical significance, the results were analyzed using one-way ANOVA using Prism 6.0.

[3] = test system: cervical carcinoma HeLa cells; test: Cell proliferation assay (WST-8); type: cell-based, human; conditions: 10 nM kinase inhibitors, 10 μg/mL antibodies
Procedure: as §2, §3, §4

[4] = test system: osteosarcoma cell line U2OS; test: Cell proliferation assay (WST-8); type: cell-based, human; conditions: 10 nM kinase inhibitors, 10 μg/mL antibodies
Procedure: as §2, §3, §4

[5] = test system: HER2(+) SCCHN PCI-13 cells; test: Blocking of HER2-BsAb T-cell cytotoxicity by trastuzumab or anti-CD3; type: cell-based, human; conditions: for effect of blocking antibody on HER2-BsAb induced T cell cytotoxicity: HER2-positive cells pre-incubated with blocking antibody (Examples 1, 2)
Procedure: as §1

[6] = test system: HCC1954 breast cancer xenograft; test: s.c. tumor plus i.v. effector cells xenograft model; type: in vivo, DKO mice; conditions: i.v. PBMC 7.5×10^6 once per week for 2 weeks, 100 μg i.v. twice per week for 4 weeks (Example 4)
Text: Three humanized mouse xenograft models were used: (1) intravenous tumor plus intravenous effector cells; (2) subcutaneous tumor plus subcutaneous effector cells; and (3) subcutaneous tumor plus intravenous effector cells. Subcutaneous xenografts were created with 5×10^6 cells suspended in Matrigel (Corning Corp, Tewksbury MA) and implanted in the flank of DKO mice. Effector peripheral blood mononuclear cell (PBMC) cells were purified from buffy coats purchased from the New York Blood Center. Prior to every experimental procedure, PBMCs were analyzed for their percentage of CD3, CD4, CD8 and CD56 cells to ensure consistency. […] Tumor size was measured using (1) hand-held TM900 scanner (Pieira, Brussels, BE); (2) Calipers; or (3) bioluminescence. Bioluminescence imaging was conducted using the Xenogen In Vivo Imaging System (IVIS) 200 (Caliper LifeSciences). Briefly, mice were injected intravenously with 0.1 mL solution of D-luciferin (Gold Biotechnology; 30 mg/mL stock in PBS). […]
Effector PBMC cells and ATCs were prepared as described above. Prior to every experimental procedure, PBMCs and ATCs were analyzed by FACS for their percentage of CD3, CD4, CD8 and CD56 cells to ensure consistency. […] Tumor size was measured using 1) hand-held TM900 scanner (Pieira, Brussels, BE), 2) Calipers, or 3) Bioluminescence. […]

[7] = test system: naïve T cells; test: T cell proliferation (WST-8); type: cell-based, human; conditions: 67 nM antibody, 6 days
Procedure: For T cell proliferation, naïve T cells were purified from human PBMC using Pan T cell isolation kit (Miltenyi Biotec). 2×10^5 purified T cells were mixed with different antibodies in 96-well cell culture plate to a final volume of 250 μl/well. T cells were cultured and maintained in RPMI-1640 supplemented with 10% FBS in 37° C. for 6 days. T cell proliferation was quantitated using the WST-8 kit as described above.

CS(=O)(=O)CCNCc1ccc(-c2ccc3ncnc(Nc4ccc(OCc5cccc(F)c5)c(Cl)c4)c3c2)o1 [lapatinib]
effect of pretreatment on sensitivity to HER2-BsAb mediated cytotoxicity [1]: enhances | sensitivity in proliferation assay [2]: resistant | sensitivity in proliferation assay [3]: no effect on cell proliferation; also recorded: resistant | sensitivity in proliferation assay ([3]; listed as Lapatinib): pan-resistant | sensitivity in proliferation assay [4]: resistant | sensitivity in proliferation assay ([4]; listed as Lapatinib): minimal sensitivity

OKT3: CD3 specific blocking mAb
effect of blocking antibody on HER2-BsAb induced T cell cytotoxicity [5]: prevented

Atezolizumab
tumor volume [6]: no effect

CCOc1cc2ncc(C#N)c(Nc3ccc(OCc4ccccn4)c(Cl)c3)c2cc1NC(=O)/C=C/CN(C)C [neratinib]
sensitivity in proliferation assay [2]: resistant | sensitivity in proliferation assay [3]: resistant | sensitivity in proliferation assay ([3]; listed as Neratinib): pan-resistant | sensitivity in proliferation assay [4]: minimal sensitivity; also recorded: resistant

C#Cc1cccc(Nc2ncnc3cc(OCCOC)c(OCCOC)cc23)c1 [erlotinib]
sensitivity in proliferation assay [2]: resistant | sensitivity in proliferation assay [3]: resistant | sensitivity in proliferation assay ([3]; listed as Erlotinib): pan-resistant | sensitivity in proliferation assay [4]: minimal sensitivity; also recorded: resistant

huOKT3: humanized anti-CD3 OKT3 IgG1, bivalent
effect of blocking antibody on HER2-BsAb induced T cell cytotoxicity [5]: block | effect of blocking antibody on HER2-BsAb T-cell cytotoxicity ([5]; PCI-13, 0.1 μg/mL HER2-BsAb, 10 μg/mL blocking antibodies): prevented; also recorded: abrogates | T cell proliferation in the absence of tumor targets [7]: robust T cell proliferation

Pembrolizumab
tumor volume [6]: no effect
